For one series, the system named is Puccinia recondita. As to the kind of experiment: In vivo preventive test on Puccinia recondita (brown rust on wheat). Conditions: 500 ppm of active ingredient; wheat plants, preventive spray; grading 12 days after contamination. Here is the method:
(§1) The active ingredients tested are prepared by homogenization in a mixture of acetone/tween/DMSO, and then diluted with water to obtain the desired active material concentration.
Wheat plants (“Scipion” variety), sown in starter cups on a 50/50 peat soil pozzolana substrate and grown at 22° C., are treated at the 1 leaf stage (10 cm height) by spraying with the active ingredient prepared as described above. Plants, used as controls, are treated with the mixture of acetone/tween/DMSO/water not containing the active material.
After 24 hours, the plants are contaminated by spraying the leaves with an aqueous suspension of Puccinia recondita spores (100 000 spores per mL). The spores are collected from an infected plant and are suspended in water containing 2.5 mL/L of Tween 80 at 10%. The contaminated wheat plants are incubated for 24 hours at 20° C. and at 100% relative humidity, and then for 10 days at 20° C. and at 70-80% relative humidity.
Grading (% of efficacy) is carried out 12 days after the contamination, in comparison with the control plants.
Under these conditions, good (at least 70%) to total protection is observed at a dose of 500 ppm of active ingredient with the following compounds from table I: […]

Series [1] can be described thus: log P by HPLC on a reversed-phase column (C 18), EEC Directive 79/831 Annex V.A8. The note with it: HPLC C 18, 40° C., 0.1% aqueous formic acid and acetonitrile; for logP: Table 1, several values = mixture of 2 or more isomers; for chromatographic logP: reversed-phase HPLC column (C 18), Table 2, compounds of formula (IIa). The series is classed as physicochemical. On the procedure:
In table 1, the log P values were determined in accordance with EEC Directive 79/831 Annex V.A8 by HPLC (High Performance Liquid Chromatography) on a reversed-phase column (C 18), using the method described below:
Temperature: 40° C.; Mobile phases: 0.1% aqueous formic acid and acetonitrile; linear gradient from 10% acetonitrile to 90% acetonitrile.
Calibration was carried out using unbranched alkan-2-ones (comprising 3 to 16 carbon atoms) with known log P values (determination of the log P values by the retention times using linear interpolation between two successive alkanones). lambda-max-values were determined using UV-spectra from 200 nm to 400 nm and the peak values of the chromatographic signals.

A further series deals with Uromyces appendiculatus. In words: In vivo preventive test on Uromyces appendiculatus (bean rust). Conditions: bean plants; for protection: Table K2 comparison with saturated analogues, 500 ppm, preventive, 11 days after contamination. Here is the method: as §1
After 24 hours, the plants are contaminated by spraying the leaves with an aqueous suspension of Uromyces appendiculatus spores (150 000 spores per mL). The spores are collected from infected plants and are suspended in water containing 2.5 mL/L of Tween 80 at 10%. The contaminated bean plants are incubated for 24 hours at 20° C. and at 100% relative humidity, and then for 10 days at 20° C. and at 70-80% relative humidity.
Grading (% of efficacy) is carried out 11 days after the contamination, in comparison with the control plants.

A further series has as its system Pyrenophora teres. In words: In vivo preventive test on Pyrenophora teres (barley). Conditions: Table H2; 100 ppm, barley plants, preventive, grading 14 days after contamination. Here is the method: as §1
Barley plants (“Plaisant” variety), sown in starter cups on a 50/50 peat soil pozzolana substrate and grown at 22° C., are treated at the 1 leaf stage (10 cm height) by spraying with the active ingredient prepared as described above. Plants, used as controls, are treated with the mixture of acetone/tween/DMSO/water not containing the active material.
After 24 hours, the plants are contaminated by spraying the leaves with an aqueous suspension of Pyrenophora teres spores (12 000 spores per mL). The spores are collected from a 12-day-old culture.
The contaminated barley plants are incubated for 48 hours at 20° C. and at 100% relative humidity, and then for 12 days at 20° C. at 70-80% relative humidity.
Grading (% of efficacy) is carried out 14 days after the contamination, in comparison with the control plants.
Under these conditions, good (at least 70%) to total protection is observed at a dose of 500 ppm of active ingredient with the following compounds from table H1: […]

Setting [2] is: dose 100 ppm, comparison with saturated analogues (table K2).
Setting [3] is: dose 500 ppm, comparison with saturated analogues (table K2).
The mark [4] stands for this setting: 500 ppm of active ingredient, preventive spray, grading 11 days after contamination (table K1).

Marks after values point to notes of the source that are not given here.

`CC1CC=C(c2ccc(F)cc2CN(C(=O)c2c(C(F)F)nn(C)c2Cl)C2CC2)CC1` (racemic) [I.47]: the Efficacy with Puccinia recondita is given as 81%. Besides, in series [1], the logP was 5.14.

As to `CC1CC=C(c2ccc(F)cc2CN(C(=S)c2c(C(F)F)nn(C)c2Cl)C2CC2)CC1` (racemic) [I.48], the logP in series [1] is listed as 5.77.

As for `Cn1nc(C(F)F)c(C(=O)N(Cc2ccccc2C2CCCC2)C2CC2)c1F` [CMP4, N-(2-cyclopentylbenzyl)-N-cyclopropyl-3-(difluoromethyl)-5-fluoro-1-methyl-1H-pyrazole-4-carboxamide, reference compound], the protection result with Uromyces appendiculatus is “poor (less than 20%) protection or plant damages”. For the same compound, in the series with Uromyces appendiculatus (setting [2]), the Efficacy was determined as 100%.

With `Cn1cc(C(=O)N(Cc2ccccc2C2CCCCC2)C2CC2)c(C(F)F)n1` [CMP5, N-(2-cyclohexylbenzyl)-N-cyclopropyl-3-(difluoromethyl)-1-methyl-1H-pyrazole-4-carboxamide, reference compound], the protection result with Uromyces appendiculatus was “poor (less than 20%) protection or plant damages”. This compound showed an Efficacy in the series on Uromyces appendiculatus (setting [2]) of 0%.

On to `Cn1nc(C(F)F)c(C(=O)N(Cc2ccccc2C2CCCCC2)C2CC2)c1F` [CMP6, N-(2-cyclohexylbenzyl)-N-cyclopropyl-3-(difluoromethyl)-5-fluoro-1-methyl-1H-pyrazole-4-carboxamide, reference compound], for which the protection entry in the series on Uromyces appendiculatus was “poor (less than 20%) protection or plant damages”. The Efficacy with Uromyces appendiculatus (setting [2]) is 38^(d) %.

In the case of `Cn1nc(C(F)F)c(C(=O)N(Cc2ccccc2C2CCCCC2)C2CC2)c1Cl` [CMP7, 5-chloro-N-(2-cyclohexylbenzyl)-N-cyclopropyl-3-(difluoromethyl)-1-methyl-1H-pyrazole-4-carboxamide, reference compound], the protection result in the series on Uromyces appendiculatus was “poor (less than 20%) protection or plant damages”. Besides, the results for the Efficacy in the series on Uromyces appendiculatus (setting [2]) and in the series with Uromyces appendiculatus (setting [3]) were 0% and 13%, respectively.

In the case of `Cn1cc(C(=O)N(Cc2ccccc2C2=CCCC2)C2CC2)c(C(F)F)c1` [I.5], in series [1], the logP is given as 4.13.

Consider `O=C(c1ccsc1I)N(Cc1ccccc1C1=CCCC1)C1CC1` [I.6], for which the Efficacy in the series with Uromyces appendiculatus (setting [4]) stood at 88%. For the same compound, the logP in series [1] is recorded as 4.85.

Compound `Cn1nc(C(F)F)c(C(=O)N(Cc2cc(C3=CCCC3)ccc2Cl)C2CC2)c1Cl` [I.8] showed an Efficacy in the series on Pyrenophora teres of 71%. In addition, the logP in series [1] came out at 4.82.

In the series with Pyrenophora teres, `Cn1nc(C(F)F)c(C(=O)N(Cc2cc(C3=CCCC3)ccc2Cl)C2CC2)c1F` [I.9] came in with an Efficacy of 79%. Further, the logP in series [1] was determined as 4.59.

In the case of `Cn1cc(C(=O)N(Cc2cc(C3=CCCC3)ccc2Cl)C2CC2)c(C(F)F)n1` [I.10], the logP in series [1] stood at 4.14.

As to `Cn1cc(C(=O)N(Cc2cc(C3=CCCC3)ccc2Cl)C2CC2)c(C(F)F)c1` [I.11], the logP in series [1] was 4.63.

Take `O=C(c1ccsc1I)N(Cc1cc(C2=CCCC2)ccc1Cl)C1CC1` [I.12]: the logP in series [1] is on record as 5.51.

The compound `Cn1nc(C(F)F)c(C(=O)N(Cc2cc(Cl)ccc2C2=CCCC2)C2CC2)c1F` [I.20] had an Efficacy with Pyrenophora teres of 97%. In addition, the logP in series [1] was 4.54.

For `O=C(c1ccsc1I)N(Cc1cc(Cl)ccc1C1=CCCC1)C1CC1` [I.21], the logP in series [1] amounted to 5.36.

On to `Cn1cc(C(=O)N(Cc2cc(Cl)ccc2C2=CCCC2)C2CC2)c(C(F)F)n1` [I.22], for which, in the series with Pyrenophora teres, the Efficacy stood at 71%. For the same compound, the logP in series [1] came out at 4.06.

Consider `Cn1nc(C(F)F)c(C(=O)N(Cc2cc(Cl)ccc2C2=CCCC2)C2CC2)c1Cl` [I.23], for which the logP in series [1] is recorded as 4.74.

For `Cn1cc(C(=O)N(Cc2cc(Cl)ccc2C2=CCCC2)C2CC2)c(C(F)F)c1` [I.24], in series [1], the logP is listed as 4.58.

Regarding `Cn1nc(C(F)F)c(C(=O)N(Cc2ccccc2C2=CCCCC2)C2CC2)c1Cl` [I.29], the Efficacy with Puccinia recondita amounted to 81%; in the series on Uromyces appendiculatus (setting [4]), 84%; in the series on Uromyces appendiculatus (setting [2]) it was 35%; in the series with Uromyces appendiculatus (setting [3]), 84%. Also, the logP in series [1] is 4.66.

For the compound `O=C(c1ccsc1I)N(Cc1cc(C2=CCCCC2)ccc1Cl)C1CC1` [I.35], the logP in series [1] is reported as 5.87.

Take `Cn1cc(C(=O)N(Cc2cc(C3=CCCCC3)ccc2Cl)C2CC2)c(C(F)F)c1` [I.36]: in series [1], the logP is given as 4.93.

Consider `Cn1cc(C(=O)N(Cc2cc(C3=CCCCC3)ccc2Cl)C2CC2)c(C(F)F)n1` [I.37], for which, in series [1], the logP is 4.46.

Turning to `Cn1nc(C(F)F)c(C(=O)N(Cc2cc(Cl)ccc2C2=CCCCC2)C2CC2)c1Cl` [I.38], the logP in series [1] was determined as 5.11.

For the compound `Cn1cc(C(=O)N(Cc2cc(Cl)ccc2C2=CCCCC2)C2CC2)c(C(F)F)n1` [I.39], in series [1], the logP is listed as 4.44.

Regarding `Cn1cc(C(=O)N(Cc2cc(Cl)ccc2C2=CCCCC2)C2CC2)c(C(F)F)c1` [I.40], the logP in series [1] was found to be 4.93.

On to `Cn1nc(C(F)F)c(C(=O)N(Cc2cc(Cl)ccc2C2=CCCCC2)C2CC2)c1F` [I.41], for which the logP in series [1] was found to be 4.88.

Take `O=C(c1ccsc1I)N(Cc1cc(Cl)ccc1C1=CCCCC1)C1CC1` [I.42]: the logP in series [1] turned out to be 5.78.

On to `O=C(c1ccsc1I)N(Cc1ccccc1C1=CCCCCC1)C1CC1` [I.52], for which, in the series with Uromyces appendiculatus (setting [4]), the Efficacy is on record as 75%. Further, the logP in series [1] is recorded as 5.78.

Take `Cn1nc(C(F)F)c(C(=O)N(Cc2cc(Cl)ccc2C2=CCCCCC2)C2CC2)c1F` [I.54]: the logP in series [1] is on record as 5.31.

Consider `Cn1cc(C(=O)N(Cc2cc(Cl)ccc2C2=CCCCCC2)C2CC2)c(C(F)F)c1` [I.55], for which the logP in series [1] is on record as 5.34.

With `Cn1nc(C(F)F)c(C(=O)N(Cc2cc(Cl)ccc2C2=CCCCCC2)C2CC2)c1Cl` [I.56], in series [1], the logP is 5.54.

Regarding `O=C(c1ccsc1I)N(Cc1cc(Cl)ccc1C1=CCCCCC1)C1CC1` [I.58], in series [1], the logP is given as 6.27.

`CC(NC1CC1)c1ccccc1C1=CCCC1` (stereo not shown) [IIa.1, N-{1-[2-(cyclopent-1-en-1-yl)phenyl]ethyl}cyclopropanamine] registered a chromatographic logP in series [1] of 1.72.

On to `C1=C(c2ccccc2CNC2CC2)CCC1` [IIa.2, N-[2-(cyclopent-1-en-1-yl)benzyl]cyclopropanamine], for which the chromatographic logP in series [1] amounted to 1.19.

Turning to `Clc1ccc(C2=CCCC2)c(CNC2CC2)c1` [IIa.3, N-[5-chloro-2-(cyclopent-1-en-1-yl)benzyl]cyclopropanamine], the chromatographic logP in series [1] came to 1.28.

In series [1], `CC(NC1CC1)c1cc(F)ccc1C1=CCCC1` (stereo not shown) [IIa.4, N-{1-[2-(cyclopent-1-en-1-yl)-5-fluorophenyl]ethyl}cyclopropanamine] had a chromatographic logP of 1.56.

Regarding `Clc1ccc(C2=CCCC2)cc1CNC1CC1` [IIa.5, N-[2-chloro-5-(cyclopent-1-en-1-yl)benzyl]cyclopropanamine], the chromatographic logP in series [1] was determined as 1.39.

In the case of `C1=C(c2ccccc2CNC2CC2)CCCC1` [IIa.6, N-[2-(cyclohex-1-en-1-yl)benzyl]cyclopropanamine], in series [1], the chromatographic logP is 1.37. This chromatographic logP and that of the compound before are within 0.2 log units of each other.

On to `Clc1ccc(C2=CCCCC2)c(CNC2CC2)c1` [IIa.7, N-[5-chloro-2-(cyclohex-1-en-1-yl)benzyl]cyclopropanamine], for which the chromatographic logP in series [1] was determined as 1.45.

Turning to `Clc1ccc(C2=CCCCC2)cc1CNC1CC1` [IIa.8, N-[2-chloro-5-(cyclohex-1-en-1-yl)benzyl]cyclopropanamine], the chromatographic logP in series [1] turned out to be 1.45.

As to `C1=C(c2ccccc2CNC2CC2)CCCCC1` [IIa.9, N-[2-(cyclohept-1-en-1-yl)benzyl]cyclopropanamine], the chromatographic logP in series [1] worked out at 1.45.

For `Clc1ccc(C2=CCCCCC2)c(CNC2CC2)c1` [IIa.10, N-[5-chloro-2-(cyclohept-1-en-1-yl)benzyl]cyclopropanamine], the chromatographic logP in series [1] stood at 1.71.

(Values after US9540314B2, “N-cycloalkyl-N-[(cycloalkenylphenyl)methylene]-(thio) carboxamide derivatives” (BAYER INTELLECTUAL PROPERTY GMBH, priority 2012, dated 2017).)
